Source: patent publication US6713250B1, “Identification of human allergens and T-lymphocyte antigens in vitro” (The Research Foundation of State University of New York, priority 1997, dated 2004)
“And” between values parts separate entries of the source, which are not always exact repeats. Identical values can stand only once. Marks after values point to notes of the source that are not given here.

Assays:
[1] = test system: human naive T-cells (PBMC); assay: Primary in vitro sensitization culture of PBMC with or without mitomycin C treated T2 cells, 3H-thymidine uptake; assay type: cell-based
[2] = test system: human naive T-cells (PBMC); assay: as above; assay type: cell-based; conditions: for response of PBMC, FIG. 4: PBMC incubated 6 days with mitomycin C treated T2 cells
Experimental: Preparation of peripheral blood mononuclear cells (PBMC). The research protocol was approved by the Committee on Research Involving Human Subjects of SUNY @ Stony Brook. After informed consent, heparinized blood was obtained by venipuncture. PBMC (peripheral blood mononuclear cells, which include lymphocytes and macrophages/monocytes) were prepared from heparinized peripheral blood by density centrifugation over Ficoll/Hypaque (Pharmacia, Piscataway, N.J.). PBMC were then washed 3 times in serum free wash medium consisting of SMEM (Gibco, Grand Island, N.Y.), and mixed (1:1) with AIM V medium (Gibco). At no time did the PBMC contact animal serum. PBMC were counted, and resuspended at 2×10^6 cells/ml in AIM V medium (Gibco).
Preparation and mitomycin C treatment of T2 cells. T2 cells were cultured in AIM V media (Gibco). Prior to treatment, they were washed, counted, and resuspended in AIM V media at 2×10^6 cells/ml. Mitomycin C (Sigma, St Louis, Mo.) was then added at 30 μg/ml for a 2 hour incubation at 37° C. The T2 cells were then washed 4 times in serum free wash media, counted with trypan blue dye exclusion, and resuspended at 1×10^6 cells/ml.
(§1) In vitro sensitization cultures. Cell cultures were performed in 96 well U-bottom trays (Linbro), with a total volume of 0.2 ml/well of AIM V medium (Gibco). PBMC (2×10^6/ml) were first admixed with equal volumes of T2 cells (1×10^6/ml), and 0.1 ml of the cell mixture was added to each well. Test compounds were then added (0.1 ml/well) at twice the desired final concentration. Each well contained 1×10^5 PBMC, 5×10^4 T2 cells, and the test compound. Control wells contained 0.1 ml of media rather than test compound. The final ratio of PBMC to T2 cells was 2:1. There were 6 replicate wells per group. The 96-well trays were then cultured for 6 days at 37° C. in a 7.5% Co2 incubator. After 6 days, 1 μCi of ^3H-thymidine was added to each well. The wells were harvested 18 hours later, and ^3H-thymidine uptake was determined with a scintillation counter (Pharmacia LKB Nuclear, Gaithersburg, Md.).

[3] = test system: T-cells (E+) and non-T cells (E-); assay: In vitro sensitization culture of purified T-cells / non-T cells mixtures with mitomycin C treated T2 cells, 3H-thymidine uptake; assay type: cell-based, human; conditions: for MEAN/SEM (3H-thymidine uptake) / S.I.: T2 cells YES, paraphenylenediamine 10 μg/ml
Experimental: Purification of T-lymphocytes. Sheep erythrocyte receptor positive (E+) T-cells and negative (E−) non-T-cells were isolated by rosetting followed by centrifugation over a Ficoll-Hypaque gradient and lysis of sheep erythrocytes by ammonium chloride as described (38). The (E+) population was greater than 95% CD3+ as determined by cytofluorgraph analysis (below).
as §1
Lymphocyte proliferation assays are generally the result of T-lymphocyte proliferation. It was confirmed that this was also true of this novel in vitro sensitization system. T-cells (70%) were mixed with irradiated (6,000R) non-T cells (30%) for a test of in vitro sensitization to paraphenylenediamine in the presence of mitomycin C treated T2 cells. In a reciprocal group, non-T cells (70%) were mixed with irradiated T-cells (30%). These cell mixtures were added to the culture system, admixed with mitomycin C treated T2 cells, and paraphenylenediamine. […] The T2 cells are not functioning as antigen presenting cells (which is to be expected since the T2 cells lack antigen presenting Major Histocompatibility Complex antigens HLA-DR and HLA-A,B,C), but rather function as accessory cells.

[4] = PBMC from 4 donors, 6 days with mitomycin C treated T2 cells, each compound 3.3 μM to 60 μM
[5] = PBMC 1 × 10^5/well, no T2 cells, 3 μg/ml
[6] = PBMC at 1 × 10^5/well, T2 cells at 1 × 10^5/well, 3 μg/ml
[7] = PBMC, NO T2 CELLS, paraphenylenediamine 10 μg/ml
[8] = T-cells 30% (6,000R), non-T cells 70%
[9] = T-cells 70%, non-T cells 30% (6,000R)
[10] = PBMC + T2 CELLS (mitomycin C treated), paraphenylenediamine 10 μg/ml
[11] = PBMC at 1 × 10^5/well, T2 cells at 5 × 10^4/well, 3 μg/ml

## CCCCCCCCCCCCOS(=O)(=O)[O-].[Na+] [SDS, sodium dodecyl sulfate]
[1]; [4]
  donor PBMC that responded, FIG. 2: none
[2]
  response of PBMC, FIG. 4: negative response
[2]; culture with accessory T2 cells
  induction of a response of naive human T-lymphocytes in the culture system: did not induce a response

## Oc1ccccc1O [catechol]
[2]
  response of PBMC, FIG. 4: positive response

## Nc1ccc(O)cc1 [p-aminophenol]
[2]
  response of PBMC, FIG. 4: positive response

## Nc1ccc(N)cc1 [paraphenylenediamine]
[1]; [5]
  MEAN dpm (3H-thymidine uptake of 6 replicate wells): 2869 dpm
  S.I. (Stimulation index: response to antigen/response to media): 0.96
[1]; [6]
  MEAN dpm (3H-thymidine uptake of 6 replicate wells): 7856 dpm
  S.I. (Stimulation index: response to antigen/response to media): 1.12
[1]; PBMC from 6 donors, 6 days with mitomycin C treated T2 cells
  donor PBMC that responded, FIG. 3: 3/6
[1]; [7]
  MEAN (3H-thymidine uptake of 6 replicate wells): 3054
  S.I. (Stimulation index: response to antigen/response to media): 1.03^
[1]; absence of T2 cells, paraphenylenediamine 3 μg/ml, HIV gp160 P18 peptide 10 μg/ml
  response of naive donor PBMC to antigen: no response
[3]; [8]
  MEAN/SEM (3H-thymidine uptake): 3096/446
  S.I.: 0.57^
[3]; [9]
  MEAN/SEM (3H-thymidine uptake): 50220/2643
  S.I.: 1.94^e
[3]; T-cells YES, non-T cells NO
  MEAN/SEM (3H-thymidine uptake): 2263/317
  S.I.: 0.67^
[3]; T-cells admixed with T2 cells in the absence of non-T cells
  response to paraphenylenediamine: no response
[3]; group where the T-cells had been irradiated (6,000R), mitomycin C treated T2 cells
  response to paraphenylenediamine: no response
[3]; groups with non-irradiated T-cells, mitomycin C treated T2 cells
  response to paraphenylenediamine: only detected in the groups with non-irradiated T-cells
[2]; [10]
  MEAN (3H-thymidine uptake of 6 replicate wells): 11973
  S.I. (Stimulation index: response to antigen/response to media): 2.09^e
[2]; PBMC admixed with T2 cells at a ratio of 2:1, paraphenylenediamine 3 μg/ml, HIV gp160 P18 peptide 10 μg/ml
  response of naive donor PBMC to antigen: statistically significant response
[2]; [11]
  MEAN dpm (3H-thymidine uptake of 6 replicate wells): 6935 dpm
  S.I. (Stimulation index: response to antigen/response to media): 1.97^c
[2]; [4]
  donor PBMC that responded, FIG. 2: 3/4 and 3
[2]; PBMC from 4 donors, presence or absence of mitomycin C treated T2 cells, 3 μg/ml, 6 days
  response of PBMC (3H-thymidine uptake), FIG. 1: Only in the presence of T2 cells was there a response
[2]
  response of PBMC, FIG. 4: positive response
